In ChEMBL document CHEMBL1201862, “PubChem BioAssay data set” (2004):
Blank lines part the entries; values can stand above or below the compound they belong to. Activity calls are given as the source filed them.

How the values were obtained:
[1] = C. albicans growth with fluconazole, confirmation, fluorescence, retest (AID 2467); assay type: functional, cell-based
[2] = Luminescence-based dose response cell-based high throughput screening assay for cytotoxic compounds using the IEC-6 intestinal epithelial cell line. [Related pubchem assays: 1858 (Summary AID.), 1825 (Counterscreen.), 1907 (Confirmation screen.)]; assay type: functional
[3] = cytotoxicity toward NIH3T3 fibroblasts, dose response, counter-screen, cell-based, ATP luminescence, mouse fibroblasts (AID 2010); assay type: functional;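 further: cells exposed to compound for about 90 hours before reading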
[4] = target: Phosphorylase b kinase gamma catalytic chain, liver/testis isoform (Homo sapiens, UniProt P15735); assay type: functional;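 further: PHKG2 measured as one member of a kinome-wide kinase panel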
Chain of Phosphorylase b kinase gamma catalytic chain, liver/testis isoform (P15735 whole entry, canonical isoform): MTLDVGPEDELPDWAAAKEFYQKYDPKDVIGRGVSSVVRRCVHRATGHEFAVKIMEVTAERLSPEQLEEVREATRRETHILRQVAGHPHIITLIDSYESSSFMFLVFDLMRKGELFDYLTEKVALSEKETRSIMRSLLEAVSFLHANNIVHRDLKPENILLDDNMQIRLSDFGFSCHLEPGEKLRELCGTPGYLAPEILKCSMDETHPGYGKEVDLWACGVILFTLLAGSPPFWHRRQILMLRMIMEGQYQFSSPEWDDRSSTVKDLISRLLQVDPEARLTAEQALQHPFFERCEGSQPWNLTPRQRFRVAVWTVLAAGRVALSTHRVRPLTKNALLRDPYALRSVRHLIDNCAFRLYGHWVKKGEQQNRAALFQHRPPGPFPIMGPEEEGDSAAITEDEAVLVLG

[5] = target: Tyrosine-protein kinase Lck (Homo sapiens, UniProt P06239); assay type: functional;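 further: lck was assayed as one member of a kinase panel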
Chain of Tyrosine-protein kinase Lck (P06239 whole entry): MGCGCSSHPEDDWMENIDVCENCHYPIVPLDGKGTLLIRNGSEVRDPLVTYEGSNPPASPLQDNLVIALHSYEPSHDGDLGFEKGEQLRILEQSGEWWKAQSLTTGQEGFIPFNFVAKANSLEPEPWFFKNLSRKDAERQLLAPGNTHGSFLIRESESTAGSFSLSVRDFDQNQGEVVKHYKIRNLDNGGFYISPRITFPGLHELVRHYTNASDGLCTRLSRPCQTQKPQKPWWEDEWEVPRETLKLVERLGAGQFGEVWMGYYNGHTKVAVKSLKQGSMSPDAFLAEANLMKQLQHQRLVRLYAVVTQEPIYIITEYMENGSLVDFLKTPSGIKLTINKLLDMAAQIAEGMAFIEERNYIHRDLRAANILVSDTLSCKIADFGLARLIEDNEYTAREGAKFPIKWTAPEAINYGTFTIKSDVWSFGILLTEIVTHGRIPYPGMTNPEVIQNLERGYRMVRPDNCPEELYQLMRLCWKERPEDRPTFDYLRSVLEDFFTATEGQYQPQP

[6] = target: Tyrosine-protein kinase Lyn (Homo sapiens, UniProt P07948); assay type: functional;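 further: lyn as one member of a kinase panel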
Chain of Tyrosine-protein kinase Lyn (P07948 whole entry): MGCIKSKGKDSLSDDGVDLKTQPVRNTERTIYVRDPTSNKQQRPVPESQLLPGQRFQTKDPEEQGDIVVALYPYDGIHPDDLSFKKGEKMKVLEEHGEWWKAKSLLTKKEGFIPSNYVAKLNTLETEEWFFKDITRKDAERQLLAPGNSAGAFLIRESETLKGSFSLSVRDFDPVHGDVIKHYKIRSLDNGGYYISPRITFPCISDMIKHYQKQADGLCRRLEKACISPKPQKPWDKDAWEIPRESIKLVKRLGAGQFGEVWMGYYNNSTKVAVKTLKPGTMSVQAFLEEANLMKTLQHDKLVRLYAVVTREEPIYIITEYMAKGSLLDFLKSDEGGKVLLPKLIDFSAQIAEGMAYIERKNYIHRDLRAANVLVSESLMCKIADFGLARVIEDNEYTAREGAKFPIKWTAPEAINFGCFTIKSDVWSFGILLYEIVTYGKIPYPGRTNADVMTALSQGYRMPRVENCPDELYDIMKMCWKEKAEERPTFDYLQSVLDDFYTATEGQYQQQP

[7] = target: Dual specificity tyrosine-phosphorylation-regulated kinase 3 (Homo sapiens, UniProt O43781); assay type: functional;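 further: measured as one member of a broad kinase panel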
Chain of Dual specificity tyrosine-phosphorylation-regulated kinase 3 (O43781 whole entry): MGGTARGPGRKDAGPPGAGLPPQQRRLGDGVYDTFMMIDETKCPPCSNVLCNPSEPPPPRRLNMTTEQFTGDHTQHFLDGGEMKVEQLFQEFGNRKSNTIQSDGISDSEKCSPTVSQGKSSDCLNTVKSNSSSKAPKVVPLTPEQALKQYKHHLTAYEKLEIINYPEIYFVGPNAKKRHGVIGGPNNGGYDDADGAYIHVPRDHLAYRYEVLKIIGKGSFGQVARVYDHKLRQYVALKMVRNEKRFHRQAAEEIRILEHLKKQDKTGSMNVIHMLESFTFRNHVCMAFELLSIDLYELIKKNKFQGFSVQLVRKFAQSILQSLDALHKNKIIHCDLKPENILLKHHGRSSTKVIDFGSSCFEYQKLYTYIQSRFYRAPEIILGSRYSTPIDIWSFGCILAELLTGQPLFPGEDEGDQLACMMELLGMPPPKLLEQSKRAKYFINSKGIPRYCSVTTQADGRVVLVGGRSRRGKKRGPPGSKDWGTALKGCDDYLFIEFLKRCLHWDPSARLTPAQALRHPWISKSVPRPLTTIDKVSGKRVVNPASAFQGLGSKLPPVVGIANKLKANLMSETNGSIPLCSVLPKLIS

[8] = target: MAP kinase-activated protein kinase 3 (Homo sapiens, UniProt Q16644); assay type: functional;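 further: value comes from a kinome-wide profiling panel in which MAPKAPK3 is one of the panel members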
Chain of MAP kinase-activated protein kinase 3 (Q16644 whole entry): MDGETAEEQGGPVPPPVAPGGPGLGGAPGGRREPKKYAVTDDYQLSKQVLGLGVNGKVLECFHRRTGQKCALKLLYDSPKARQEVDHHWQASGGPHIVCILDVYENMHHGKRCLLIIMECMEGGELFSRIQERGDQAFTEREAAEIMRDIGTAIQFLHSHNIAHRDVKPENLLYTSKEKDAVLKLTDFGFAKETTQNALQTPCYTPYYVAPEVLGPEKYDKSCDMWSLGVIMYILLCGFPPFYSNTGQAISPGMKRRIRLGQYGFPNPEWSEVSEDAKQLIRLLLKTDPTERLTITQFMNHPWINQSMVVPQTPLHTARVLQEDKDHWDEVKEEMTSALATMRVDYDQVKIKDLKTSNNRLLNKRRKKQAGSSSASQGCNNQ

[9] = target: Dual specificity tyrosine-phosphorylation-regulated kinase 4 (Homo sapiens, UniProt Q9NR20); assay type: functional
Chain of Dual specificity tyrosine-phosphorylation-regulated kinase 4 (Q9NR20 whole entry): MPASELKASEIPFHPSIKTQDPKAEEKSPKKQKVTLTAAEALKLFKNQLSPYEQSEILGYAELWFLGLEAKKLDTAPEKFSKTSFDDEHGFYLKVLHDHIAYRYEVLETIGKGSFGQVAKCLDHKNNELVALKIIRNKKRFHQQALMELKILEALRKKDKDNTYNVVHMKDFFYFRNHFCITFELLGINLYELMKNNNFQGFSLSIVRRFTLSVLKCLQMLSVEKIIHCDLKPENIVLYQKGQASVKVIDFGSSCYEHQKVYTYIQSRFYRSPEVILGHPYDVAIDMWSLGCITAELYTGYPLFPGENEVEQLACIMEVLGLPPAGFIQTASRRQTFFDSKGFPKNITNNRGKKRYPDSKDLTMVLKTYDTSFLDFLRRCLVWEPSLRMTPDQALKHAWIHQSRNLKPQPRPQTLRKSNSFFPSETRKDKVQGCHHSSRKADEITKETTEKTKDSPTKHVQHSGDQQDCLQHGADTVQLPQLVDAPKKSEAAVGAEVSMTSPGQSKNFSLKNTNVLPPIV

[10] = target: Tyrosine-protein kinase Fer (Homo sapiens, UniProt P16591); assay type: functional;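 further: FER tested as one member of a kinome panel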
Chain of Tyrosine-protein kinase Fer (P16591 whole entry): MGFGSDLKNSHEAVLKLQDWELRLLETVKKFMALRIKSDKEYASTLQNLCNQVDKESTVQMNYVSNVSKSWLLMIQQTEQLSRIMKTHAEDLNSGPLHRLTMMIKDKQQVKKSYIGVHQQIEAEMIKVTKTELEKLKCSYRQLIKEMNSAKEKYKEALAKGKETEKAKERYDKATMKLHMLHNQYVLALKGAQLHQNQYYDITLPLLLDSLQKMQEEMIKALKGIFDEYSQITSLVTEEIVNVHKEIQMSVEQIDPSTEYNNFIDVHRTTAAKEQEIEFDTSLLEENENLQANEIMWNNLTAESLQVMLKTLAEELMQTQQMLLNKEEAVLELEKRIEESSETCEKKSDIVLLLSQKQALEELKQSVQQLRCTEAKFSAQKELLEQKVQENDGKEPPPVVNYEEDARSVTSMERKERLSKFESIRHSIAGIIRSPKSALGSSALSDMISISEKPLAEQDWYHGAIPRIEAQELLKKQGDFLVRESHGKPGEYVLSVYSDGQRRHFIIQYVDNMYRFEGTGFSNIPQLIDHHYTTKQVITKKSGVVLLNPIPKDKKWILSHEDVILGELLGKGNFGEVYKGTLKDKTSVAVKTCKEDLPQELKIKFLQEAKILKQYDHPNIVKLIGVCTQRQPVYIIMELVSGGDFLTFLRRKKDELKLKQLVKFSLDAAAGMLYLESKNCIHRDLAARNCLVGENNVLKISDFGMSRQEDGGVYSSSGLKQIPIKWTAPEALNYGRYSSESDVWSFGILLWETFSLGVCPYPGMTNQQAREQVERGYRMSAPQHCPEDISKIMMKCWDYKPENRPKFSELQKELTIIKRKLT

[11] = target: STE20-like serine/threonine-protein kinase (Homo sapiens, UniProt Q9H2G2); assay type: functional
Chain of STE20-like serine/threonine-protein kinase (Q9H2G2 whole entry): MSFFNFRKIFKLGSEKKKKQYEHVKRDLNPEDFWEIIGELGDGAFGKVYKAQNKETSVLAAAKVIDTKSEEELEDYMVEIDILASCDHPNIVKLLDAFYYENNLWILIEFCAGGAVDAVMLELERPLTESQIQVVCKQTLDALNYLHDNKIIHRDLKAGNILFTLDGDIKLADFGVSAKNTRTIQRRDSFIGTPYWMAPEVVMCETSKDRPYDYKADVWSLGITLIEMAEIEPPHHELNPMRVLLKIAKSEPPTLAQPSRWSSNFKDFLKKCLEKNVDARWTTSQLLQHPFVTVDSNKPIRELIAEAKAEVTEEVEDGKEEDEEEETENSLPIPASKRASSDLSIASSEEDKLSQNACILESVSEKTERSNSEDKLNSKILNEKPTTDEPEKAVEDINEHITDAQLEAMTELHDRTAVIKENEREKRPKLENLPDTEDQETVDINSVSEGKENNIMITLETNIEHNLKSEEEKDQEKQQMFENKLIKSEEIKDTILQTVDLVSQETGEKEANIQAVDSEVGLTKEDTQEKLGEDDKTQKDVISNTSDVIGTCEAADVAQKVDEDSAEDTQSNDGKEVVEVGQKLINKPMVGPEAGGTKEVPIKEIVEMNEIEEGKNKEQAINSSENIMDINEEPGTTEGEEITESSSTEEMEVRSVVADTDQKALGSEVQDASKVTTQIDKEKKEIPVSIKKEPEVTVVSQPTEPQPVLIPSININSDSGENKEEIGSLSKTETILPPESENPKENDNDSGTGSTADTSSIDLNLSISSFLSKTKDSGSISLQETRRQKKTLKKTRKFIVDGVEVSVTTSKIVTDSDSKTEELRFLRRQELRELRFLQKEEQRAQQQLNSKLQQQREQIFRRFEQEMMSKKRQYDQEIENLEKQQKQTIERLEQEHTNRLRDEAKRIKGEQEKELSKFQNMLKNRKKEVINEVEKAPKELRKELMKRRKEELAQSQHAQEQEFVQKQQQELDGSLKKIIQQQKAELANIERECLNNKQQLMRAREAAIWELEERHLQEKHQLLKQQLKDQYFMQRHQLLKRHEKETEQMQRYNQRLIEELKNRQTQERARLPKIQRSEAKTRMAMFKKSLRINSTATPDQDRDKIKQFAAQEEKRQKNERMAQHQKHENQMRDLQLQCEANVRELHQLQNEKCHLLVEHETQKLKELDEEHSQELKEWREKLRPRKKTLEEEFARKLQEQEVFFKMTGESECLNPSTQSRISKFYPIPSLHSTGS

[12] = target: T1, Sentrin-specific protease 7 (Homo sapiens, UniProt Q9BQF6); assay: SENP7 protease inhibitors, SAR follow-up, biochemical, luminescence (AID 504497); assay type: functional
T1 sequence (Q9BQF6 whole entry): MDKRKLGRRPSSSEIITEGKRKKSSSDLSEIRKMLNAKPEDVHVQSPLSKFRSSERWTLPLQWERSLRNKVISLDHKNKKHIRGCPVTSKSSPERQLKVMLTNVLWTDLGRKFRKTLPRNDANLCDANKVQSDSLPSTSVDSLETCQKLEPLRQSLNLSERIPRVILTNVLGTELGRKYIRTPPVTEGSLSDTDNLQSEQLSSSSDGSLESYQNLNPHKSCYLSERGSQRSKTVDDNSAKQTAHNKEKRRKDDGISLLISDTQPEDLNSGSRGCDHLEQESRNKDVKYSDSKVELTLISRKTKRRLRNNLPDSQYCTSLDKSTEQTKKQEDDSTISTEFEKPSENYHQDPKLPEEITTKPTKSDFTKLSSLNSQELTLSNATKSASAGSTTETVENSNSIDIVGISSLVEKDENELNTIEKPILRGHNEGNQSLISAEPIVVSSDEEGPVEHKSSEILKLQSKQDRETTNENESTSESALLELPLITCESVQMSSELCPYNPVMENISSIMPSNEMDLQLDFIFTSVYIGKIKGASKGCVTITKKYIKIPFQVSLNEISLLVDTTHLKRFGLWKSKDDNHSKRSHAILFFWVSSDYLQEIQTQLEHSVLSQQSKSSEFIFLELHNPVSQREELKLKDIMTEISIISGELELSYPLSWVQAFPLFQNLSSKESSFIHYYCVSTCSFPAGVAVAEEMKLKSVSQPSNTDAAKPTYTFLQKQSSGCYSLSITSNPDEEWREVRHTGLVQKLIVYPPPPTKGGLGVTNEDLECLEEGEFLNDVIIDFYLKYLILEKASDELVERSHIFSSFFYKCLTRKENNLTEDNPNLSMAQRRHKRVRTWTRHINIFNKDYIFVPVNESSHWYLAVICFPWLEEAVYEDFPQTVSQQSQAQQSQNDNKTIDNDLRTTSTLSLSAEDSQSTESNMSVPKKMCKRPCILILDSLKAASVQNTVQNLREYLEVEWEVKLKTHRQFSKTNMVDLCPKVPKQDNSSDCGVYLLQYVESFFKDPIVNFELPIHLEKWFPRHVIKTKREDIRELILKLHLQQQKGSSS

[13] = A549 cell cytotoxicity, dose response, cytotoxicity control, plate reader, cherry-pick, antagonist series (AID 743412); assay type: functional, cell-based
[14] = target: T2, C-C chemokine receptor type 6 (Homo sapiens, UniProt P51684); assay: CCR6 receptor antagonists, dose response, cell-based, luminescent beta-arrestin readout (AID 504728); assay type: functional
T2 sequence (P51684 whole entry): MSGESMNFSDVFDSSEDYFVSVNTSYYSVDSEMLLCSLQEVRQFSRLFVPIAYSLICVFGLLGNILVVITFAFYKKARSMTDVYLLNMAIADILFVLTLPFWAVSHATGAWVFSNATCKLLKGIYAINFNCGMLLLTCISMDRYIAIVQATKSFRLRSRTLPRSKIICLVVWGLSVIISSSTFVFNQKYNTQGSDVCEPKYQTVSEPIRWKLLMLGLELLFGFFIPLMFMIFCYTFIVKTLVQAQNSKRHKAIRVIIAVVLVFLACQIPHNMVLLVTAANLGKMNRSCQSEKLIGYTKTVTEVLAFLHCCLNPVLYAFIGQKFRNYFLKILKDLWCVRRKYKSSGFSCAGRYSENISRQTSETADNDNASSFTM

Beta-galactosidase = Beta-galactosidase (Escherichia coli, UniProt Q8VNN2); assay: beta-galactosidase enzyme inhibitors and activators, dose response, artefact control for CCR6 antagonist project, biochemical, E. coli enzyme, set 3 (AID 504712); assay type: functional
[15] = target: T3, Rac GTPase-activating protein 1 (Homo sapiens, UniProt Q9H0H5); assay: MgcRacGAP GTPase-activating activity inhibitors, confirmation, biochemical, ADP Hunter fluorescence, primary and confirmatory (AID 624330); assay type: functional
T3 sequence (Q9H0H5 whole entry): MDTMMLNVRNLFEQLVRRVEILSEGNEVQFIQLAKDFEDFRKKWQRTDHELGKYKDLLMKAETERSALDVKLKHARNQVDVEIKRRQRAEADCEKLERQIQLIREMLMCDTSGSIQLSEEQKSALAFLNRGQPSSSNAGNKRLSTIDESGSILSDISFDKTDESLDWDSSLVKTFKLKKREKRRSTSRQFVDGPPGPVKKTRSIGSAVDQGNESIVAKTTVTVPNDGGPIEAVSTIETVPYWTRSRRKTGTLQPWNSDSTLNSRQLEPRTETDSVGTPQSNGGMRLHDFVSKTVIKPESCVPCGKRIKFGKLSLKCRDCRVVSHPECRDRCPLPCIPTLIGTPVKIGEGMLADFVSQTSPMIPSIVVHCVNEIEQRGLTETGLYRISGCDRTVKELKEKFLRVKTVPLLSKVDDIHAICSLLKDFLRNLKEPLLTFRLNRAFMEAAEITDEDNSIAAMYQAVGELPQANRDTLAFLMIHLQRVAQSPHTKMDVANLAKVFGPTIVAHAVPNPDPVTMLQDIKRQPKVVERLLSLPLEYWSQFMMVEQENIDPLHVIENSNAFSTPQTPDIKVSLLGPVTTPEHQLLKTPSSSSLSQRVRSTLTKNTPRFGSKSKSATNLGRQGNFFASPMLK

Compound: Cc1ccc(Nc2cc(C)nn2-c2nc(C)cc(O)n2)cc1
EC50 [1]: < 30 nM (active)
IC50 [2]: 546 nM (active)
EC50 [3]: 497 nM (active)
EC50 (cells): 74 nM (active)

Ki [4]: > 5.01 µM (inactive)
Ki [5]: > 2.51 µM (inactive)
Ki [6]: > 1.58 µM (inactive)
Ki [7]: > 6.31 µM (inactive)
Ki [8]: > 10 µM (inactive)
Ki [9]: > 7.94 µM (inactive)
Ki [10]: > 1.58 µM (inactive)
Ki [11]: 1.26 µM (active)
Compound: O=C1NC(=S)SC1=C1C(=O)Nc2ccc(Br)cc21

Compound: Cc1cnc(NC(=O)c2sc3ccccc3c2Cl)s1
IC50 [12]: 1.77 µM (active)
AC50 [13]: 25.4 µM (active)

Compound: CN(C)c1ncc(C2=C(Cl)C(=O)C(N3CCCC3)=C(Cl)C2=O)s1
IC50 [14]: > 66.6 µM (inactive)
IC50 (Beta-galactosidase): > 66.6 µM (inactive)
IC50 [15]: 89.5 µM (active)
